Data from US11939588B2, “Elevated resistance to insects and plant pathogens without compromising seed production” (Board of Trustees of Michigan State University, priority 2019, dated 2024).

Assays:
Format in all cases: in vivo, Arabidopsis thaliana
[1] = test system: WT, cdk8-1, jazD and jazD cdk8-1 seedlings; assay: Root length on medium with 5-methyl-tryptophan; conditions: 0 or 15 μM 5-MT, 10-day-old, partially dependent on CDK8
Text: FIG. 13A is a schematic of tryptophan biosynthesis from chorismate. Tryptophan feedback inhibits the activity of anthranilate synthase (AS). Although 5-methyl-tryptophan (5-MT) inhibits anthranilate synthase activity, it cannot be used for the production of proteins. The abbreviations used in FIG. 13A are: TRP, anthranilate phosphoribosyltransferase: PAI, phosphoribosylanthranilate isomerase; IGPS, indole-3-glycerol-phosphate synthase; TSA, tryptophan synthase alpha subunit: TSB, tryptophan synthase beta subunit. FIG. 13B graphically illustrates root length of WT, cdk8-1, jazD, and jazD cdk8-1 10-day-old seedlings grown on medium supplemented with 0 or 15 μM of 5-methyl-tryptophan (5-MT). Data shown are the mean±SD of at least 24 seedlings per genotype at each 5-MT concentration. Letters denote significant differences according to Tukey's HSD test (P<0.05).
FIG. 13B graphically illustrates root length of WT, cdk8-1, jazD, and jazD cdk8-1 10-day-old seedlings grown on medium supplemented with 0 or 15 μM of 5-methyl-tryptophan (5-MT). The data shown in FIG. 13B are the mean±SD of at least 24 seedlings per genotype at each 5-MT concentration, while the letters denote significant differences according to Tukey's HSD test (P<0.05).

[2] = test system: WT, jazQ and jazD seedlings; assay: Apical hook formation in ethylene-elicited (ACC-treated) seedlings; conditions: jazD and jazQ seedlings compared with WT
Text: FIGS. 3A-3F illustrates that jazD plants are highly resistant to insect herbivores and necrotrophic pathogens. […] Data shown are the mean±SD of at least 30 larvae per genotype. Capital letters denote significant differences according to Tukey's HSD test (P<0.05). FIG. 3C is a heat map displaying the expression level of various jasmonate/ethylene-responsive genes in leaves of jazQ and jazD normalized to wild type. ACT, agmatine coumaroyl transferase (accession no. At5g61160). […] FIG. 3E graphically illustrates disease lesion size on leaves of the indicated genotypes following 5 days of treatment with B. cinerea spores for the indicated plant lines. […] Capital letters denote significant differences (Tukey's HSD test, P<0.05). FIG. 3F graphically illustrates apical hook angles of seedlings grown in the presence of various concentrations of the ethylene precursor 1-aminocyclopropane-1-carboxylic acid (ACC). Data shown are the mean±SD of at least 21 seedlings per genotype. […]
In agreement with the RNA-seq data, jazQ plants were slightly more susceptible than wild type to the necrotrophic pathogen Botrytis cinerea, whereas jazD leaves were more resistant to the spread of disease lesions (FIG. […]). To determine whether jazQ and jazD differentially affect other ethylene responses, the inventors assessed apical hook formation in ethylene-elicited seedlings.

[3] = test system: wild type Col-0 (WT), jazQ, jazD and jazU seedlings; assay: Root elongation assay with MeJA
Procedure: Seeds were surface sterilized with 50% (v/v) bleach for three min, washed 10 times with sterile water and stratified in dark at 4° C. for two days. Seedlings were grown on 0.7% (w/v) agar media containing half-strength Linsmaier and Skoog (LS; Caisson Labs) salts supplemented with 0.8% (w/v) sucrose and the indicated concentration of MeJA (Sigma-Aldrich). Each square Petri plate (Fisher; 100×100×15 mm) contained five seedlings per genotype. Plates were incubated vertically in a growth chamber maintained at 21° C. for eight days under 16-hour-light (80 μE m^−2s^−1)/8-hour-dark conditions. The length of primary roots was measured using ImageJ software (see website at imagej.nih.gov/ij/).

[4] = test system: leaves of wild type, jazQ and jazD plants; assay: Coronatine treatment of intact leaves; conditions: 50 μM coronatine
Procedure: The eighth true leaf of 40-day-old plants grown under 12-hour-light/12-hour-dark conditions were spotted with 5 μL of sterile water (mock) or a solution containing 50 μM coronatine (Sigma-Aldrich, C8115) prepared in sterile water. Photographs were taken two and four days after treatment.

[5] = test system: WT, jazQ and jazD seedlings; assay: Sucrose rescue assay (leaf biomass and root growth)
Procedure: The effect of exogenous sucrose on leaf biomass and root growth was determined by growing seedlings on square Petri plates (Greiner Bio-One; 120×120×17 mm). In order to control for variation in seed quality, seeds were sieved after drying with desiccant for two weeks (see above). After sterilization and washing, seeds were sown without stratification on 0.7% (w/v) agar media containing half-strength LS salts supplemented with sucrose or sorbitol. Each plate contained ten (for biomass) or five (for root growth) seeds of Col-0 and mutant lines. Plates were placed in the dark at 4° C. for four days and then incubated horizontally (for leaf biomass) or vertically (for root growth) in growth chambers maintained at 21° C. under 16 h at a light intensity of 80 μE m^−2 s^−1 and 8-hour dark. ImageJ was used to measure root length after 11 days. Plant biomass and projected leaf area were measured after 16 days.

Cc1ccc2[nH]cc(C[C@H](N)C(=O)O)c2c1 [5-MT, 5-methyl-tryptophan]
resistance to 5-MT (root length) [1]: increased resistance

NC1(C(=O)O)CC1 [ACC, 1-aminocyclopropane-1-carboxylic acid]
stimulation of hook curvature in response to ACC [2]: reduced in jazD but not jazQ seedlings

CC/C=C\CC1C(=O)CCC1CC(=O)OC (stereo not shown) [MeJA, methyljasmonate]
sensitivity of jaz decuple mutant (jazD) to jasmonate ([3]; jazD seedlings, 0, 5 or 25 μM MeJA, 8-day-old): highly sensitive
growth of roots in the presence of MeJA ([3]; jazD seedlings, 5 μM MeJA): effectively arrested
root length in the presence of MeJA ([3]; jazU seedlings versus jazD, very low concentrations (e.g., 1 μM) of MeJA): even shorter than jazD

CC[C@H]1C=C(C(=O)N[C@@]2(C(=O)O)C[C@@H]2CC)[C@H]2CCC(=O)[C@H]2C1 [coronatine]
sensitivity of jazD leaves to coronatine ([4]; jazD leaves, 2 or 4 days): hypersensitive
leaf response after COR application ([4]; jazD leaves, 4 days after treatment): near complete loss of chlorophyll and spreading of necrosis-like symptoms throughout the leaf
leaf response at the site of COR application ([4]; jazD leaves, within 2 days of treatment): visible chlorosis
chlorosis after COR application ([4]; wild type and jazQ leaves, within 4 days): no apparent signs of chlorosis
leaf response at the site of COR application ([4]; wild type and jazQ leaves, within 4 days of treatment): visible accumulation of anthocyanin pigments

OC[C@H]1O[C@@](CO)(O[C@H]2O[C@H](CO)[C@@H](O)[C@H](O)[C@H]2O)[C@@H](O)[C@@H]1O [sucrose]
effect of exogenous sucrose on biomass ([5]; all genotypes tested (WT, jazQ, jazD), 16-day-old seedlings on agar medium): promotes increased biomass
effect of exogenous sucrose on root growth ([5]; jazD in comparison with wild type and jazQ, 11-day-old seedlings, 23 mM sucrose): enhanced the root growth of jazD
stimulatory effect of sucrose on growth of shoots ([5]; jazD shoots compared with wild type and jazQ): statistically greater than that of wild type and jazQ
